Molecules are shown by their SMILES. Structures can show the parent of a compound that is named as a salt.

One series deals with T1, Human GnRH Receptor (Homo sapiens, UniProt P30968).
T1 construct: expressed in transfected cells; host or cells: CHO (Chinese hamster ovary) cells
T1 sequence (P30968 1-328): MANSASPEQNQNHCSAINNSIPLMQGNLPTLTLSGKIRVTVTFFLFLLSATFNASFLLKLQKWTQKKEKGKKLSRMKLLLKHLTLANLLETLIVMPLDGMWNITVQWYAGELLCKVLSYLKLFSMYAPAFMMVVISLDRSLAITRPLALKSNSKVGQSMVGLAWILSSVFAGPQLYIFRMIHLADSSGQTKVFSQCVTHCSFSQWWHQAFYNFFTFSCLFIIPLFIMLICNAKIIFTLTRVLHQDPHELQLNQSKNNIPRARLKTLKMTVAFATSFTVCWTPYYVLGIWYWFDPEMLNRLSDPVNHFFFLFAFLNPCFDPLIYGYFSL
The series can be described thus: 125I-leuprorelin binding inhibition, membrane fraction of human GnRH receptor-expressing CHO cells. As to conditions: 25° C. for 60 minutes, Hill plot. As to the method: (§1) (1) Preparation of ^125I-Leuprorelin
(§2) To a tube containing 10 μl of a 3×10^−4 M aqueous solution of leuprorelin and 10 μl of 0.01 mg/ml lactoperoxidase, 10 μl (37 MBq) of a solution of Na^125I was added. After stirring, 10 μl of 0.001% H2O2 was added, and a reaction was carried out at room temperature for 20 minutes. By adding 700 μl of a 0.05% TFA (trifluoroacetic acid) solution, the reaction was stopped, and the solution was purified by reversed-phase HPLC. The HPLC conditions are shown below. ^125I-leuprorelin was eluted at a retention time of 26 to 27 minutes.
(3) Preparation of a CHO (Chinese Hamster Ovarian) Cell Membrane Fraction Containing Human GnRH Receptor
Human GnRH receptor-expressing CHO cells (10^9 cells) were suspended in phosphate-buffered saline supplemented with 5 mM EDTA (PBS-EDTA) and centrifuged at 100×g for 5 minutes. […]
(§3) When the rat pituitary anterior lobe membrane fraction was used, the reaction was conducted at 4° C. for 90 minutes. […] After the filtration, the radioactivity of ^125I-leuprorelin remaining on the filter paper was measured with a γ-counter.
(§4) (TB−SB)/(TB−NSB)×100 (SB: radioactivity when the compound is added, TB: maximum binding radioactivity, NSB: non-specific binding radioactivity) was calculated to find the binding inhibition rate (%) of each test substance. […]

The next series concerns the target T2, Rat GnRH Receptor (Rattus norvegicus, UniProt P30969).
T2 construct: Anterior lobes of the pituitary glands were isolated from forty Wistar rats; from tissue; host or cells: rat (Wistar, male, 8 weeks) anterior pituitary membrane fraction
T2 sequence (P30969 1-327): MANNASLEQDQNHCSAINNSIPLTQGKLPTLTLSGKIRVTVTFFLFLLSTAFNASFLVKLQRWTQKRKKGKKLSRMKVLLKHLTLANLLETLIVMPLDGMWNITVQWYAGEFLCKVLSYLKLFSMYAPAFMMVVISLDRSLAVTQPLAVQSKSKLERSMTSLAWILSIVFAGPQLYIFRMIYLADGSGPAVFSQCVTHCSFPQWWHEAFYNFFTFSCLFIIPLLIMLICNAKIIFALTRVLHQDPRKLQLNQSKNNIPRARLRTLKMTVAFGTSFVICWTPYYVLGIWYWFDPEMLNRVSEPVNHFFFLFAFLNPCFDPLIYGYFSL
The series can be described thus: 125I-leuprorelin binding inhibition, rat pituitary anterior lobe membrane fraction. To be noted: 4° C. for 90 minutes, Hill plot. As to the method: as §1, §2
(2) Preparation of a Pituitary Anterior Lobe Membrane […]
as §3, §4

With `CCNC(=O)Nc1ccc(-c2sc3c(c2CN(C)CCOC(C)C)c(=O)n(-c2ccccc2)c(=O)n3Cc2c(F)cccc2F)cc1` [Example 110, N-[4-(1-(2,6-difluorobenzyl)-[(2-(2-propoxy)ethyl(methyl)amino}methyl]-2,4-dioxo-3 phenyl-1,2,3,4-tetrahydrothieno[2,3-d]pyrimidin-6-yl)phenyl]-N′-ethylurea], the melting point was 224 °C. On Human GnRH Receptor, this compound gave an IC50 of less than 0.0001 µM. At Rat GnRH Receptor, this compound came in with a half-maximal inhibitory concentration (IC50) of 0.2 µM.
`CCNC(=O)Nc1ccc(-c2sc3c(c2CN(C)Cc2ccccn2)c(=O)n(-c2ccccc2)c(=O)n3Cc2c(F)cccc2F)cc1` [Example 113] gave a melting point of 203 to 204 °C.
The same measure, in the same setting: for `CCNC(=O)Nc1ccc(-c2sc3c(c2CNCCOC)c(=O)n(-c2ccccc2)c(=O)n3Cc2c(F)cccc2F)cc1` [Example 2, N-[4-(1-(2,6-difluorobenzyl)-5-{[(2-methoxyethyl)amino]methyl}-2,4-dioxo-3-phenyl-1,2,3,4-tetrahydrothieno[2,3-d]pyrimidin-6-yl)phenyl]-N′-ethylurea] the value was 221 to 223 °C; for `CCNC(=O)Nc1ccc(-c2sc3c(c2CN(C)CCN(C)Cc2ccccc2)c(=O)n(-c2ccccc2)c(=O)n3Cc2c(F)cccc2F)cc1` [Example 25, N-{4-[5-{[{2-[benzyl(methyl)amino]ethyl}(methyl)amino]methyl}-1-(2,6-difluorobenzyl)-2,4-dioxo-3-phenyl-1,2,3,4-tetrahydrothieno[2,3-d]pyrimidin-6-yl]phenyl}-N′-ethylurea], 151 to 153 °C; for `CCNC(=O)Nc1ccc(-c2sc3c(c2CN(C)CCCC(=O)OCC)c(=O)n(-c2ccccc2)c(=O)n3Cc2c(F)cccc2F)cc1` [Example 6, ethyl 4-[{[1-(2,6-difluorobenzyl)-6-(4-{[(ethylamino)carbonyl]amino}phenyl)-2,4-dioxo-3-phenyl-1,2,3,4-tetrahydrothieno[2,3-d]pyrimidin-5-yl]methyl}(methyl)amino]butanate], 203 to 204 °C.
`CCNC(=O)Nc1ccc(-c2sc3c(c2CN(C)CCOC)c(=O)n(-c2ccc(OCCOC)cc2)c(=O)n3Cc2c(F)cccc2F)cc1` [Example 104] displayed a melting point of 215 to 218 °C.
Still for that read-out and setting: for `CCNC(=O)Nc1ccc(-c2sc3c(c2CN(C)CCN2CCCS2(=O)=O)c(=O)n(-c2ccccc2)c(=O)n3Cc2c(F)cccc2F)cc1` [Example 86, N-[4-(1-(2,6-difluorobenzyl)-5-([[2-(1,1-dioxo-2-isothiazolidinyl)ethyl](methyl)amino]methyl}-2,4-dioxo-3-phenyl-1,2,3,4-tetrahydrothieno[2,3-d]pyrimidin-6-yl)phenyl]-N′-ethylurea] the value was 210 to 211 °C; for `CCNC(=O)Nc1ccc(-c2sc3c(c2CN(C)CCCC(=O)N(C)C)c(=O)n(-c2ccccc2)c(=O)n3Cc2c(F)cccc2F)cc1` [Example 18, 4-[{[1-(2,6-difluorobenzyl)-6-(4-{[(ethylamino)carbonyl]amino}phenyl)-2,4-dioxo-3-phenyl-1,2,3,4-tetrahydrothieno[2,3-d]pyrimidin-5-yl]methyl}(methyl)amino]-N,N-dimethylbutane amide], 191 to 193 °C.
The same measure, in the same setting: the value for `CCNC(=O)Nc1ccc(-c2sc3c(c2CN(C)CCN(C)C(C)=O)c(=O)n(-c2ccccc2)c(=O)n3Cc2c(F)cccc2F)cc1` [Example 27, N-{2-[{[1-(2,6-difluorobenzyl)-6-(4-{[(ethylamino)carbonyl]amino}phenyl)-2,4-dioxo-3-phenyl-1,2,3,4-tetrahydrothieno[2,3-d]pyrimidin-5-yl]methyl}(methyl)amino]ethyl}-N-methylacetamide] was 180 to 181 °C.
The same measure, in the same setting: for `CCNC(=O)Nc1ccc(-c2sc3c(c2CN(C)Cc2ccccn2)c(=O)n(-c2ccc(F)cc2)c(=O)n3Cc2c(F)cccc2F)cc1` [Example 114] the value was 243 to 244 °C; for `CCNC(=O)Nc1ccc(-c2sc3c(c2CN(C)C2CCCC2)c(=O)n(-c2ccccc2)c(=O)n3Cc2c(F)cccc2F)cc1` [Example 93, N-{4-[5-{[cyclopentyl(methyl)amino]methyl}-1-(2,6-difluorobenzyl)-2,4-dioxo-3-phenyl-1,2,3,4-tetrahydrothieno[2,3-d]pyrimidin-6-yl]phenyl}-N′-ethylurea], 210 to 213 °C.
Turning to `CCNC(=O)Nc1ccc(-c2sc3c(c2CN(C)CCOC)c(=O)n(-c2ccccc2)c(=O)n3Cc2c(F)cccc2F)cc1` [Example 112, N-[4-(1-(2,6-difluorobenzyl)-5-{[(2-methoxyethyl)(methyl)amino]methyl}-2,4-dioxo-3-phenyl-1,2,3,4-tetrahydrothieno[2,3-d]pyrimidin-6-yl)phenyl]-N′-ethylurea 1 hydrochloride], the 50% inhibitory concentration (IC50) at Human GnRH Receptor was 0.0001 µM; on Rat GnRH Receptor, 0.2 µM.

By IC50 is commonly meant the point on the concentration scale where inhibition reaches its midpoint. The term melting point denotes the temperature, or range, at which the solid turns liquid.
